Counter-ions that a name gives are not always drawn.
Experiments:
Format in all cases: biochemical
[1] = molecular target: T1, NUAK2 (h) (Homo sapiens, UniProt Q9H093); experiment: NUAK2 enzymatic assay (radiometric, Eurofins); conditions: for IC50: radiometric, full-length recombinant enzyme; for AUR-A (IC50, nM)/NUAK2 (IC50, nM): NUAK2 selectivity over Aurora-A, ratio of IC50s
T1 construct: This assay was done radiometrically using full-length, recombinant enzyme; purchased Eurofins
T1 sequence (Q9H093 1-628): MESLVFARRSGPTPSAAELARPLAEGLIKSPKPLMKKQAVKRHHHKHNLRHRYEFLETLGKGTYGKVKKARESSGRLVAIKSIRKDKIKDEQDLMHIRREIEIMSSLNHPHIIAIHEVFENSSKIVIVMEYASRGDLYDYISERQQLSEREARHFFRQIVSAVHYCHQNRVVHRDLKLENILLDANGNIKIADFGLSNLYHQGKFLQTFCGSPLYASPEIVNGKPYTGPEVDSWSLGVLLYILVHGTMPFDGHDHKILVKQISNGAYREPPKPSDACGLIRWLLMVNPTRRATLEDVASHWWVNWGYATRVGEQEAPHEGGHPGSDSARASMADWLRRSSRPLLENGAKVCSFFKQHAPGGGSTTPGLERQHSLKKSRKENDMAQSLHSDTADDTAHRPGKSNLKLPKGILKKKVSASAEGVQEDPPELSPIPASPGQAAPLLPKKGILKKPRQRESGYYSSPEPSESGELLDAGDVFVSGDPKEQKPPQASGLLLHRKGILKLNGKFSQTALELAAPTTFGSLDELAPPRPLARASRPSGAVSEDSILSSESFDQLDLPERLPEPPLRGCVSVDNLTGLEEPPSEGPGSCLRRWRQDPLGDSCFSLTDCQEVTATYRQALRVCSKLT
Description: (§1) To identify small molecule NUAK inhibitors, a biochemical NUAK2 enzymatic assay was outsourced to Eurofins. This assay was done radiometrically using full-length, recombinant enzyme. NUAK2 (h) was incubated with 8 mM MOPS pH 7.0, 0.2 mM EDTA, 300 μM […], 10 mM magnesium acetate and […] (specific activity and concentration as required). The reaction was initiated by the addition of the Mg/ATP mix. After incubation for 40 minutes at room temperature, the reaction was stopped by the addition of phosphoric acid to a concentration of 0.5%. 10 μL of the reaction was then spotted onto a P30 filter mat and washed four times for 4 minutes in 0.425% phosphoric acid and once in methanol prior to drying and scintillation counting. Compounds were routinely counter screened against Aurora A and NUAK1. The results are shown in Table 1 where IC50s are reported the following ranges: A: 0.1-10 nM; B: 11-100 nM; C: 101-1000 nM; D: >1000 nM for the compounds of Formula I)

[2] = molecular target: T2, NUAK1 (Homo sapiens, UniProt O60285); experiment: NUAK1 counter screen
T2 sequence (O60285 1-661): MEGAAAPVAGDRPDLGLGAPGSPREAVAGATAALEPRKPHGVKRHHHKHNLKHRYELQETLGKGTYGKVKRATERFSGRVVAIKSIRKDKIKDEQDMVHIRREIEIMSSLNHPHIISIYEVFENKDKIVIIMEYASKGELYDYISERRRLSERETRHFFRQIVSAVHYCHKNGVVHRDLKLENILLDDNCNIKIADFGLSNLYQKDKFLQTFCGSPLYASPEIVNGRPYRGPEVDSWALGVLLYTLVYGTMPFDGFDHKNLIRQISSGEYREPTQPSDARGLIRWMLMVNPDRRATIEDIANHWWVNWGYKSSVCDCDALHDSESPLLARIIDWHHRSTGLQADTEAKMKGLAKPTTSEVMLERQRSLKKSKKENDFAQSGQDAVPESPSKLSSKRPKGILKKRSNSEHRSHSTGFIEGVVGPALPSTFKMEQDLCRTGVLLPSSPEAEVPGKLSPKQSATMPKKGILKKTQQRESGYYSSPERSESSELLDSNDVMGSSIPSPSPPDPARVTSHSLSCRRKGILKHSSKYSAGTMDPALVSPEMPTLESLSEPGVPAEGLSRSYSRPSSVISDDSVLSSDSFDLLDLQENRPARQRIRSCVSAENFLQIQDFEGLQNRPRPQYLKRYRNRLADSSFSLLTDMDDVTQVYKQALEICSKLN
Description: as §1

[3] = molecular target: T3, Aurora A (Homo sapiens, UniProt O14965); experiment: Aurora A counter screen; conditions: read-out: AUR-A (IC50)
T3 sequence (O14965 1-403): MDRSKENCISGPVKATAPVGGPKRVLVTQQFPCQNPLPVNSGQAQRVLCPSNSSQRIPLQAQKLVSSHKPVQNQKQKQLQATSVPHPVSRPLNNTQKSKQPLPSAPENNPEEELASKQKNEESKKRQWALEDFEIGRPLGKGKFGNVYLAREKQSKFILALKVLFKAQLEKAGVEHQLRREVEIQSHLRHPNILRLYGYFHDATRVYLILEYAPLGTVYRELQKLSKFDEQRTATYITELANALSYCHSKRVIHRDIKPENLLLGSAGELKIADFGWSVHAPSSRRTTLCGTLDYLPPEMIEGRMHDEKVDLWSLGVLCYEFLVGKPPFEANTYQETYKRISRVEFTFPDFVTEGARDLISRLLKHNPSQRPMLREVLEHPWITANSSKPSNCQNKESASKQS
Description: as §1

Compound | IC50 [1] [nM] | IC50 [2] [nM] | IC50 [3] [nM] | AUR-A (IC50, nM)/NUAK2 (IC50, nM) [1]
CN1C2CCC1CN(c1ccc(Nc3ncc(Cl)c(Nc4sccc4C(N)=O)n3)c(OC(F)F)c1)C2 [Compound I-32, 2-((5-chloro-2-((2-(difluoromethoxy)-4-(8-methyl-3,8-diazabicyclo[3.2.1]octan-3-yl)phenyl)amino)pyrimidin-4-yl)amino)thiophene-3-carboxamide] | 11 to 100 | 11 to 100 | 101 to 1000 | –
C[C@H]1CN(C2CCN(c3ccc(Nc4ncc(C(F)(F)F)c(Nc5ccsc5C(N)=O)n4)c(OC(F)F)c3)CC2)CCN1C [Compound I-68, (S)-3-((2-((2-(difluoromethoxy)-4-(4-(3,4-dimethylpiperazin-1-yl)piperidin-1-yl)phenyl)amino)-5-(trifluoromethyl)pyrimidin-4-yl)amino)thiophene-2-carboxamide] | 11 to 100 | 11 to 100 | 101 to 1000 | –
CCN1CCN(c2ccc(Nc3ncc(Cl)c(Nc4cscc4C(N)=O)n3)c(OC(F)F)c2)CC1 [Compound I-14, 4-((5-chloro-2-((2-(difluoromethoxy)-4-(4-ethylpiperazin-1-yl)phenyl)amino)pyrimidin-4-yl)amino)thiophene-3-carboxamide] | 0.1 to 10 | 0.1 to 10 | 101 to 1000 | –
CNC(=O)c1sccc1Nc1nc(Nc2ccc(N3CCN(C)CC3)cc2OC(F)F)ncc1Cl [Compound I-7, 3-((5-chloro-2-((2-(difluoromethoxy)-4-(4-methylpiperazin-1-yl)phenyl)amino)pyrimidin-4-yl)amino)-N-methylthiophene-2-carboxamide] | 11 to 100 | 11 to 100 | 101 to 1000 | –
CC(C)N1C[C@@H]2C[C@H]1CN2c1ccc(Nc2ncc(Cl)c(Nc3sccc3C(N)=O)n2)c(OC(F)F)c1 (stereo in doubt) [Compound I-36, 2-((5-chloro-2-((2-(difluoromethoxy)-4-((1S,4S)-5-isopropyl-2,5-diazabicyclo[2.2.1]heptan-2-yl)phenyl)amino)pyrimidin-4-yl)amino)thiophene-3-carboxamide] | 11 to 100 | 11 to 100 | 101 to 1000 | –
CC(C)N1CCN(c2ccc(Nc3ncc(Cl)c(Nc4ccsc4C(N)=O)n3)c(OC(F)F)c2)CC1 [Compound I-12, 3-((5-chloro-2-((2-(difluoromethoxy)-4-(4-isopropylpiperazin-1-yl)phenyl)amino)pyrimidin-4-yl)amino)thiophene-2-carboxamide hydrochloride] | 0.1 to 10 | 0.1 to 10 | 11 to 100 | –
C[C@@H]1CN(C2CCN(c3ccc(Nc4ncc(Cl)c(Nc5ccsc5C(N)=O)n4)c(OC(F)F)c3)CC2)C[C@@H](C)N1C [Compound I-69, 3-((5-chloro-2-((2-(difluoromethoxy)-4-(4-((3R,5R)-3,4,5-trimethylpiperazin-1-yl)piperidin-1-yl)phenyl)amino)pyrimidin-4-yl)amino)thiophene-2-carboxamide] | 0.1 to 10 | 11 to 100 | 11 to 100 | –
NC(=O)c1sccc1Nc1nc(Nc2ccc(N3CCN4CCC[C@@H]4C3)cc2OC(F)F)ncc1Cl [Compound I-44, (R)-3-((5-chloro-2-((2-(difluoromethoxy)-4-(hexahydropyrrolo[1,2-a]pyrazin-2(1H)-yl)phenyl)amino)pyrimidin-4-yl)amino)thiophene-2-carboxamide] | 0.1 to 10 | 11 to 100 | 101 to 1000 | 137
NC(=O)c1sccc1Nc1nc(Nc2ccc(N3CCOCC3)cc2OC(F)F)ncc1C(F)(F)F [Compound I-39, 3-((2-((2-(difluoromethoxy)-4-morpholinophenyl)amino)-5-(trifluoromethyl)pyrimidin-4-yl)amino)thiophene-2-carboxamide] | 11 to 100 | 11 to 100 | 101 to 1000 | –
COc1c(Nc2ncc(Cl)c(Nc3ccsc3C(N)=O)n2)ccc(N2CCN(C)CC2)c1F [Compound C-2, reference compound] | 0.1 to 10 | 0.1 to 10 | 101 to 1000 | 71
NC(=O)c1sccc1Nc1nc(Nc2ccc(N3CCN4CCOC[C@H]4C3)cc2OC(F)F)ncc1Cl [Compound I-45, (R)-3-((5-chloro-2-((2-(difluoromethoxy)-4-(hexahydropyrazino[2,1-c][1,4]oxazin-8(1H)-yl)phenyl)amino)pyrimidin-4-yl)amino)thiophene-2-carboxamide] | 11 to 100 | 11 to 100 | 101 to 1000 | –
C[C@@H]1CN(C2CCN(c3ccc(Nc4ncc(Cl)c(Nc5ccsc5C(N)=O)n4)c(OC(F)F)c3)CC2)C[C@H](C)N1C [Compound I-64, 3-((5-chloro-2-((2-(difluoromethoxy)-4-(4-((3R,5S)-3,4,5-trimethylpiperazin-1-yl)piperidin-1-yl)phenyl)amino)pyrimidin-4-yl)amino)thiophene-2-carboxamide] | 0.1 to 10 | 11 to 100 | 101 to 1000 | –
CN1CCN(c2ccc(Nc3ncc(Cl)c(N[C@@H]4CCC[C@@H]4C(N)=O)n3)c(C(F)(F)F)c2)CC1 [Compound I-84, (1S,2R)-2-((5-chloro-2-((4-(4-methylpiperazin-1-yl)-2-(trifluoromethyl)phenyl)amino)pyrimidin-4-yl)amino)cyclopentane-1-carboxamide] | 11 to 100 | 101 to 1000 | > 1000 | –
Cc1c(Nc2ncc(Cl)c(Nc3ccsc3C(N)=O)n2)ccc(N2CCN(C)CC2)c1F [Compound C-5, reference compound] | 0.1 to 10 | 11 to 100 | 101 to 1000 | 14
CN1CCC2(CC1)CCN(c1ccc(Nc3ncc(Cl)c(Nc4ccsc4C(N)=O)n3)c(OC(F)F)c1)C2 [Compound I-53, 3-((5-chloro-2-((2-(difluoromethoxy)-4-(8-methyl-2,8-diazaspiro[4.5]decan-2-yl)phenyl)amino)pyrimidin-4-yl)amino)thiophene-2-carboxamide] | 11 to 100 | 11 to 100 | 101 to 1000 | –
CN1CCN(c2cc(OC(F)F)c(Nc3ncc(Cl)c(Nc4ccsc4C(N)=O)n3)cc2F)CC1 [Compound I-6, 3-((5-chloro-2-((2-(difluoromethoxy)-5-fluoro-4-(4-methylpiperazin-1-yl)phenyl)amino)pyrimidin-4-yl)amino)thiophene-2-carboxamide] | 11 to 100 | 11 to 100 | 101 to 1000 | –
CN(C)C1CCN(c2ccc(Nc3ncc(Cl)c(Nc4ccsc4C(N)=O)n3)c(OC(F)F)c2)CC1 [Compound I-47, 3-((5-chloro-2-((2-(difluoromethoxy)-4-(4-(dimethylamino)piperidin-1-yl)phenyl)amino)pyrimidin-4-yl)amino)thiophene-2-carboxamide] | 11 to 100 | 0.1 to 10 | 11 to 100 | –

Source: patent US20240025887A1, “THIENYL AND CYCLOALKYL AMINOPYRIMIDINE COMPOUNDS AS INHIBITORS OF NUAK KINASES, COMPOSITIONS AND USES THEREOF” (Ontario Institute for Cancer Research (OICR), priority 2021, published 2024)
